Experimental data as given in PMC12274739, “Differential substrate degradation by super-degron: EGFP in wild-type mouse cells, PD-1 requires CRBN humanization” (iScience, 2025).
Read-outs that look alike come from different tables or passages of the source. Residues, ends and D or L forms follow the SMILES beside them. *: point of attachment. Cbz = O=C(OCc1ccccc1)*

Experiments:
EGFP-ZFP91 = EGFP-ZFP91 (UniProt P42212+Q8C7D2, F64L/H231L/INS1V/S65T); type: cell-based, mouse; conditions: CrbnI391V/I391V mESCs; for Bottom, EGFP-ZFP91 / LogDC50, EGFP-ZFP91 / DC50: stable, Figure 5E; for DC50: read-out: DC50, EGFP-ZFP91
EGFP-SD = EGFP-SD (Aequorea victoria, UniProt P42212, F64L/H231L/S65T); type: cell-based, mouse; conditions: stable; for DC50: read-out: DC50, EGFP-SD
EGFP-IKZF = EGFP-IKZF (UniProt P42212+Q8C7D2, F64L/H231L/INS1V/S65T); type: cell-based, mouse; conditions: for Bottom, EGFP-IKZF / LogDC50, EGFP-IKZF / DC50: stable; for DC50: read-out: DC50, EGFP-IKZF
[1] = tested on: degradation of SD-tagged EGFP; assay: Inhibition of IBR-induced degradation of SD-EGFP or EGFP-SD in B6J-S1 by pathway inhibitors; type: cell-based, mouse; conditions: B6J-S1, IBR fixed at 1 μM, 24 h
[2] = in vivo; cited from earlier work
[3] = CrbnI391V/I391V mESCs, Figure 5E

With `Cc1nc2cccc(N)c2c(=O)n1C1CCC(=O)NC1=O` (centres unmarked) [AVA, avadomide] the “Bottom, EGFP-ZFP91” value (EGFP-ZFP91) was 0.1629, the “LogDC50, EGFP-ZFP91” value (EGFP-ZFP91) was -1.296 μM and the DC50 (EGFP-ZFP91) was 50.5 nM. The “Bottom, EGFP-SD” value (EGFP-SD; B6J-S1 mESCs, Figure 5D) was 0.01996, the “LogDC50, EGFP-SD” value (EGFP-SD; B6J-S1 mESCs, Figure 5D) was -2.1 μM and the “Bottom, EGFP-SD” value (EGFP-SD; [3]) was 0.06758. The “LogDC50, EGFP-SD” value (EGFP-SD; [3]) was -2.187 μM, the DC50 (EGFP-SD; B6J-S1 mESCs, Figure 5D) was 7.94 nM and the DC50 (EGFP-SD; [3]) was 6.5 nM. For the same molecule, the “Bottom, EGFP-IKZF” value (EGFP-IKZF; B6J-S1 mESCs, Figure 5D) was 0.07112, the “LogDC50, EGFP-IKZF” value (EGFP-IKZF; B6J-S1 mESCs, Figure 5D) was -0.9014 μM and the “Bottom, EGFP-IKZF” value (EGFP-IKZF; [3]) was 0.1373. The “LogDC50, EGFP-IKZF” value (EGFP-IKZF; [3]) was -1.87 μM, the “EGFP-IKZF amount compared to other reagents” value (EGFP-IKZF; mESCs, 0.1 and 1 μM) was “significantly reduced” and the DC50 (EGFP-IKZF; B6J-S1 mESCs, Figure 5D) was 126 nM. The DC50 (EGFP-IKZF; [3]) was 13.5 nM.

For `CC(C)C[C@@H](C=O)NC(=O)[C@H](CC(C)C)NC(=O)[C@H](CC(C)C)NC(=O)OCc1ccccc1` [MG-132] (Cbz-Leu-Leu-Leu-aldehyde), the “effect on IBR-induced EGFP degradation” value [1] was “inhibited in a concentration-dependent manner”.

In the case of `NS(=O)(=O)OC[C@@H]1C[C@@H](n2ccc3c(N[C@H]4CCc5ccccc54)ncnc32)C[C@@H]1O` [MNL4924, pevonedistat], the “effect on IBR-induced EGFP degradation” value [1] is reported as “inhibited in a concentration-dependent manner”.

For `N#Cc1ccc(N2CCN(Cc3ccc(COc4cccc5c4CN([C@H]4CCC(=O)NC4=O)C5=O)cc3)CC2)c(F)c1` [MZG, mezigdomide], the “degradation of EGFP-ZFP91” value (EGFP-ZFP91) was “efficiently degraded”, the “Bottom, EGFP-ZFP91” value (EGFP-ZFP91) was 0.03183 and the “LogDC50, EGFP-ZFP91” value (EGFP-ZFP91) was -3.343 μM. For the same molecule, the DC50 (EGFP-ZFP91) was 0.454 nM, the “Bottom, EGFP-SD” value (EGFP-SD; B6J-S1 mESCs, Figure 5D) was 0.0126 and the “LogDC50, EGFP-SD” value (EGFP-SD; B6J-S1 mESCs, Figure 5D) was -3.875 μM. For the same molecule, the “Bottom, EGFP-SD” value (EGFP-SD; [3]) was 0.0164, the “LogDC50, EGFP-SD” value (EGFP-SD; [3]) was -4.187 μM and the DC50 (EGFP-SD; B6J-S1 mESCs, Figure 5D) was 0.133 nM. The DC50 (EGFP-SD; [3]) was 0.0651 nM, the “Bottom, EGFP-IKZF” value (EGFP-IKZF; B6J-S1 mESCs, Figure 5D) was 0.385 and the “LogDC50, EGFP-IKZF” value (EGFP-IKZF; B6J-S1 mESCs, Figure 5D) was -1.952 μM. The “Bottom, EGFP-IKZF” value (EGFP-IKZF; [3]) was 0.1226, the “LogDC50, EGFP-IKZF” value (EGFP-IKZF; [3]) was -3.265 μM and the DC50 (EGFP-IKZF; B6J-S1 mESCs, Figure 5D) was 11.2 nM. It also gave a DC50 (EGFP-IKZF; [3]) of 0.543 nM.

For `CCOC(=O)c1ccc(N2NC(=O)/C(=C/c3ccc([N+](=O)[O-])o3)C2=O)cc1` [PYR-41], the “effect on IBR-induced EGFP degradation” value [1] was “did not affect the degradation of EGFP”.

For `NS(=O)(=O)OC[C@H]1C[C@@H](Nc2ccnc3cc(-c4cccc(SC(F)(F)F)c4)nn23)[C@H](O)[C@@H]1O` [TAK-243], the “effect on IBR-induced EGFP degradation” value [1] was “inhibited in a concentration-dependent manner”.

In the case of `CCN(CC)CCCC(C)Nc1ccnc2cc(Cl)ccc12` (centres unmarked) [chloroquine], the “effect on IBR-induced EGFP degradation” value [1] is reported as “but not by chloroquine”.

For `CC[C@H](C(=O)N1CCCC[C@H]1C(=O)O[C@H](CCc1ccc(OC)c(OC)c1)c1ccccc1OCC(=O)NCCCCCCOc1cccc2c1C(=O)N(C1CCC(=O)NC1=O)C2=O)c1cc(OC)c(OC)c(OC)c1` (some centres unmarked) [dTAG-13], the “blood-brain barrier (BBB) passage” value [2] is listed as “cannot cross the blood-brain barrier”.
